Earlier results, collected in patent US12527785B2, “Renin-angiotensin-aldosterone system (RAAS) inhibitors in the treatment of pancreatic ductal carcinoma” (OCHSNER CLINIC FOUNDATION, priority 2023, dated 2026).

Conditions: 100 mg EMA401 p.o. in men and women; cited from earlier work

Question: With `COc1ccc2c(c1OCc1ccccc1)C[C@@H](C(=O)O)N(C(=O)C(c1ccccc1)c1ccccc1)C2` [EMA401] as the molecule, how does the Serum concentration read?
Answer: The Serum concentration was 1 µg/mL.
